# Measured values as given in ChEMBL document CHEMBL1152694, “Synthetic medicinal chemistry of selected antimalarial natural products” (Bioorg Med Chem, 2009).
# Assays:
# Plasmodium berghei = experiment: Antimalarial activity against Plasmodium berghei infected mice (Mus musculus); type: functional
# [1] = Selectivity ratio of cytotoxicity to human KB cells to antimalarial activity against Plasmodium falciparum; type: cell-based
Compound,ED50 (Plasmodium berghei) [µmol/kg],selectivity ratio [1]
CC1(C)[C@@H](n2cnc3ccccc3c2=O)C(=O)C[C@@H]2[C@@H](O)CCCN21,6,–
CC[C@](C)(O)C(=O)O[C@H]1C(=O)O[C@@H]2C[C@H]3C(C)=CC(=O)[C@@H](O)[C@]3(C)[C@H]3[C@@]4(O)OC[C@]32[C@@H]1[C@@H](C)[C@H]4O [GLAUCARUBINONE],–,285
CC1(C)[C@H](n2cnc3ccccc3c2=O)CC[C@H]2[C@@H](O)CCCN21,145,–
